Measured values from ChEMBL document CHEMBL1201862, “PubChem BioAssay data set” (2004).
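Exposure lasted 48 hours, with cells grown in 96-well plates and compounds tested at five concentrations. Abbreviation: GI50, concentration required for 50% inhibition of growth.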 Calls of active or inactive are those of the source. No stated cut-off is given here; in the data, active = GI50 up to about 1.1 µM and inactive = higher.

How the values were obtained:
Experiment in all cases: growth of human tumour cells (NCI), 48 h
[1] = test system: A498
[2] = test system: HCC 2998
[3] = test system: HCT-15
[4] = test system: KM12
[5] = test system: MDA-N
[6] = test system: Malme-3M
[7] = test system: NCI-H226
[8] = test system: NCI-H23
[9] = test system: NCI/ADR-RES
[10] = test system: OVCAR-5
[11] = test system: RXF 393
[12] = test system: SK-MEL-28
[13] = test system: SK-MEL-2
[14] = test system: SK-MEL-5
[15] = test system: SN12C
[16] = test system: SNB-19
[17] = test system: SW-620
[18] = test system: U-251
[19] = test system: UACC-257
[20] = test system: UO-31

| Compound | GI50 [1] | GI50 [2] | GI50 [3] | GI50 [4] | GI50 [5] | GI50 [6] | GI50 [7] | GI50 [8] | GI50 [9] | GI50 [10] | GI50 [11] | GI50 [12] | GI50 [13] | GI50 [14] | GI50 [15] | GI50 [16] | GI50 [17] | GI50 [18] | GI50 [19] | GI50 [20] |
| --- | --- | --- | --- | --- | --- | --- | --- | --- | --- | --- | --- | --- | --- | --- | --- | --- | --- | --- | --- | --- |
| CCCCc1cc2c(C)cc(=O)oc2c(O)c1O | 26.5 µM (inactive) | 3.15 µM (inactive) | 26.9 µM | 25.1 µM (inactive) | 38.5 µM (inactive) | 27.8 µM (inactive) | 23.9 µM (inactive) | 34.9 µM (inactive) | 22.6 µM (inactive) | 69.7 µM (inactive) | 24.8 µM (inactive) | 37.3 µM (inactive) | 3.6 µM (inactive) | 20.7 µM (inactive) | 32.4 µM (inactive) | 37.9 µM (inactive) | 28.2 µM (inactive) | 23.7 µM (inactive) | 20.4 µM (inactive) | 20.3 µM (inactive) |
| O=C1Nc2ccccc2/C1=N/NC(=S)Nc1ccc(Cl)cc1 | 18.3 µM (inactive) | > 100 µM (inactive) | 20.2 µM | 5.77 µM (inactive) | 63.7 µM (inactive) | 9.62 µM (inactive) | 22.2 µM (inactive) | 57.4 µM (inactive) | 12.1 µM (inactive) | 64.6 µM (inactive) | 39.4 µM (inactive) | > 100 µM (inactive) | 24.5 µM (inactive) | 17.2 µM (inactive) | 29.3 µM (inactive) | 41.8 µM (inactive) | 29.4 µM (inactive) | 23.2 µM (inactive) | 15.2 µM (inactive) | 38.8 µM (inactive) |
| C=C1CCCC2[C@](C)(CC3=C(Cl)C(=O)C=C(OC)C3=O)C(C)CC[C@]12C (stereo not given in full) | 8.49 µM (inactive) | 9.12 µM (inactive) | 3.46 µM | 2.26 µM (inactive) | 6.95 µM (inactive) | 8.18 µM (inactive) | 7.6 µM (inactive) | 4.49 µM (inactive) | 3.99 µM (inactive) | 2.94 µM (inactive) | 5.42 µM (inactive) | 7.31 µM (inactive) | 6.64 µM (inactive) | 6.43 µM (inactive) | 5.77 µM (inactive) | 7.21 µM (inactive) | 3.02 µM (inactive) | 3.44 µM (inactive) | 5.89 µM (inactive) | 1.76 µM (inactive) |
| Cc1cc2c(=O)[nH]nc(N)c2c(N)n1 | > 100 µM (inactive) | > 100 µM (inactive) | > 100 µM | > 100 µM (inactive) | > 100 µM (inactive) | > 100 µM (inactive) | > 100 µM (inactive) | > 100 µM (inactive) | > 100 µM (inactive) | > 100 µM (inactive) | > 100 µM (inactive) | > 100 µM (inactive) | > 100 µM (inactive) | > 100 µM (inactive) | > 100 µM (inactive) | > 100 µM (inactive) | > 100 µM (inactive) | > 100 µM (inactive) | > 100 µM (inactive) | > 100 µM (inactive) |
| c1ccc(CCNc2ccccn2)nc1 | > 100 µM (inactive) | > 100 µM (inactive) | > 100 µM | > 100 µM (inactive) | > 100 µM (inactive) | > 100 µM (inactive) | > 100 µM (inactive) | > 100 µM (inactive) | > 100 µM (inactive) | > 100 µM (inactive) | > 100 µM (inactive) | > 100 µM (inactive) | > 100 µM (inactive) | > 100 µM (inactive) | > 100 µM (inactive) | > 100 µM (inactive) | > 100 µM (inactive) | > 100 µM (inactive) | > 100 µM (inactive) | > 100 µM (inactive) |
| CCOC(=O)c1ccc(C(=O)C(C(C)=O)C(=O)OC(C)(C)C)n1C (stereo not given) | > 100 µM (inactive) | > 100 µM (inactive) | > 100 µM | > 100 µM (inactive) | > 100 µM (inactive) | > 100 µM (inactive) | > 100 µM (inactive) | > 100 µM (inactive) | > 100 µM (inactive) | > 100 µM (inactive) | > 100 µM (inactive) | > 100 µM (inactive) | > 100 µM (inactive) | > 100 µM (inactive) | > 100 µM (inactive) | > 100 µM (inactive) | > 100 µM (inactive) | > 100 µM (inactive) | > 100 µM (inactive) | > 100 µM (inactive) |
| CCN(CC)C1Oc2cc3c(cc2C(c2cc(OC)c(O)c(OC)c2)C1C)OCO3 (stereo not given) | 24.6 µM (inactive) | 7.01 µM (inactive) | 12.6 µM | 4.44 µM (inactive) | 1.98 µM (inactive) | 3.55 µM (inactive) | 10.8 µM (inactive) | 28.8 µM (inactive) | 5.92 µM (inactive) | 14.2 µM (inactive) | 6.95 µM (inactive) | 14.2 µM (inactive) | 18.7 µM (inactive) | 3.63 µM (inactive) | 15.2 µM (inactive) | 16.2 µM (inactive) | 4.62 µM (inactive) | 10.5 µM (inactive) | 25 µM (inactive) | 19.6 µM (inactive) |
| Cc1cc(S(=O)(=O)NC2=NNC(C)CN2)c(S)cc1Cl (stereo not given) | 21.6 µM (inactive) | 37.3 µM (inactive) | 32.1 µM | 61.8 µM (inactive) | 39.6 µM (inactive) | 16.7 µM (inactive) | 45.2 µM (inactive) | 48.6 µM (inactive) | 33.4 µM (inactive) | 93.3 µM (inactive) | 50.9 µM (inactive) | 41.6 µM (inactive) | 21 µM (inactive) | 35.1 µM (inactive) | 80.5 µM (inactive) | 60 µM (inactive) | 32.3 µM (inactive) | 39.2 µM (inactive) | > 100 µM (inactive) | 51.5 µM (inactive) |
| C#CCn1c(I)cc2c(c1=O)COC(=O)[C@]2(O)CC | > 100 µM (inactive) | > 100 µM (inactive) | > 100 µM | > 100 µM (inactive) | > 100 µM (inactive) | > 100 µM (inactive) | > 100 µM (inactive) | > 100 µM (inactive) | > 100 µM (inactive) | > 100 µM (inactive) | > 100 µM (inactive) | > 100 µM (inactive) | > 100 µM (inactive) | > 100 µM (inactive) | > 100 µM (inactive) | > 100 µM (inactive) | > 100 µM (inactive) | > 100 µM (inactive) | > 100 µM (inactive) | > 100 µM (inactive) |
| Cc1cn(CCCCCCC2=NCCCN2)c(=O)[nH]c1=O | > 100 µM (inactive) | > 100 µM (inactive) | > 100 µM | > 100 µM (inactive) | > 100 µM (inactive) | > 100 µM (inactive) | > 100 µM (inactive) | > 100 µM (inactive) | > 100 µM (inactive) | > 100 µM (inactive) | > 100 µM (inactive) | > 100 µM (inactive) | > 100 µM (inactive) | > 100 µM (inactive) | > 100 µM (inactive) | > 100 µM (inactive) | > 100 µM (inactive) | > 100 µM (inactive) | > 100 µM (inactive) | > 100 µM (inactive) |
